Measured values from publication PMC4684479 (Molecular imaging and biology : MIB : the official …, 2016).

Tests used:
bovine serum albumin = bovine serum albumin (Bos taurus, UniProt P02769); assay: Serum protein binding by gel filtration chromatography; assay type: in vitro ADME; details: GFC after incubation in bovine serum albumin solution at 37°C for 4 h
[1] = set-up: species or system Sprague-Dawley rat; details: rat, in vivo, iv
[2] = in serum; cited from earlier work
[3] = Optical properties of NIR fluorophores in 100% serum, pH 7.4; assay type: physicochemical
[4] = Stability in warm serum, 24 h, 37°C; assay type: in vitro ADME; details: 100% serum, pH 7.4, 24 h
[5] = conventional NIR fluorophores; cited from earlier work

bovine serum albumin, sequence (P02769 25-607): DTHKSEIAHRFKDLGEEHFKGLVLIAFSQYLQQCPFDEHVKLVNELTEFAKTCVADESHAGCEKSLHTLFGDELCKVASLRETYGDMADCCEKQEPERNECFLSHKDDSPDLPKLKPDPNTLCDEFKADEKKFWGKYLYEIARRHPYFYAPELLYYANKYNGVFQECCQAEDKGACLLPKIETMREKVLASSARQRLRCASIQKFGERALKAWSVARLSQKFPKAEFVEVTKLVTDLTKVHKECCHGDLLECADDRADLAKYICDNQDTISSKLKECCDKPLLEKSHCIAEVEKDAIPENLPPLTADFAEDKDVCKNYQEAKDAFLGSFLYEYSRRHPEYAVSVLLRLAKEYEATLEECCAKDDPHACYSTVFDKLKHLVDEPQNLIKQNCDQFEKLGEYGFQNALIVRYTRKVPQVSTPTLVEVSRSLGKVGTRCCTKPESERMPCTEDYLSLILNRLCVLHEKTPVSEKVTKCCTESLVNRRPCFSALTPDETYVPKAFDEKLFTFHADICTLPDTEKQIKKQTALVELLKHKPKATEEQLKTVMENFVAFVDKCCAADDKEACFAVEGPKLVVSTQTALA

Serum protein binding (bovine serum albumin)	Absorbance Maximum [3]	Emission Maximum [3]	Extinction Coefficient [3]	Quantum Yield [3]	Stokes Shift [3]	Stability (%) at 24 h, 37°C [4]	Compound	clearance route seen by dual-channel imaging [1]	molar extinction coefficient (ε) [2]	quantum yield (QY) [2]	LogD at pH 7.4 [5]
significant serum protein binding							CC1(C)C(/C=C/C=C/C=C/C=C2\N(CCCCS(=O)(=O)[O-])c3ccc4ccccc4c3C2(C)C)=[N+](CCCCS(=O)(=O)[O-])c2ccc3ccccc3c21.[Na+] [ICG]	extracted from blood by the liver and excreted into bile	121,000 M^−1cm^−1	9.3%	
	665 nm	685 nm	71,200 M^−1cm^−1	3.8%	20 nm	99%	CN(C)c1ccc2nc3ccc(=[N+](C)C)cc-3sc2c1 [Methylene Blue]				
							CC1(C)C(=CC=C2CCCC(C=CC3=[N+](CCCCCC(=O)[O-])c4ccc(S(=O)(=O)[O-])cc4C3(C)C)=C2Oc2ccc(S(=O)(=O)[O-])cc2)N(CCCCS(=O)(=O)[O-])c2ccc(S(=O)(=O)[O-])cc21.[Na+].[Na+].[Na+].[Na+] [IRDye 800CW]				2.51
	646 nm	663 nm	199,000 M^−1cm^−1	19.5%	17 nm	99%	CC1(C)C(/C=C/C(=C/C=C2/N(CCC[N+](C)(C)C)c3ccc(S(=O)(=O)[O-])cc3C2(C)C)c2ccc(CCC(=O)[O-])cc2)=[N+](CCC[N+](C)(C)C)c2ccc(S(=O)(=O)[O-])cc21 [ZW700-1c]				
